For 26 compounds, Ki results are on record in patent publication US8030321B2, “Benzofuro- and benzothienopyrimidine modulators of the histamine H4 receptor” (Janssen Pharmaceutica, NV, priority 2006, dated 2011).

Structures are written as SMILES. Counter-ions that a name gives are not always drawn. Like-named read-outs stand apart in the source and are kept apart here.

This assay deals with T1, human histamine H4 receptor (Homo sapiens, UniProt Q9H3N8).
T1 construct: expressed in transfected cells; host or cells: SK-N-MC cells or COS7 cells, transiently transfected; cell membranes used
T1 sequence (Q9H3N8 whole entry): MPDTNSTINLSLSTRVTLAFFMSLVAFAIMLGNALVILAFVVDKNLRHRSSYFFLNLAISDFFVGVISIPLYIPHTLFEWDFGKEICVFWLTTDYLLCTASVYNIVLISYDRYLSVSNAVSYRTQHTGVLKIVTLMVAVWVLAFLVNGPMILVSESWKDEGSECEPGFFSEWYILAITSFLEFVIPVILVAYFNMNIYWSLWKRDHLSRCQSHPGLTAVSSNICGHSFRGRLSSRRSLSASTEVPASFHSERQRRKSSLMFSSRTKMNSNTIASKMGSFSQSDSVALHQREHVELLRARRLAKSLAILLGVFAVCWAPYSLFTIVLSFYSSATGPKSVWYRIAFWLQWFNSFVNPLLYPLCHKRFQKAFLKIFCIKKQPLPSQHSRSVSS
The assay is described as follows: Binding Assay on Recombinant Human Histamine H4 Receptor. The essentials:
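Membranes from SK-N-MC or COS7 cells transiently transfected with human H4 receptor were incubated with ³H-histamine (5-70 nM); nonspecific binding defined with 10,000 nM histamine. Bound radioactivity collected by GF/C filtration and scintillation counting; test compounds assessed by displacement of ³H-ligand binding across concentrations.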

The mark [1] stands for this setting: competition binding with 3H-histamine (5 nM), membranes of SK-N-MC or COS7 cells expressing human H4 receptor, Cheng-Prusoff, KD 5 nM, average of results obtained, read-out: Ki.

`COc1cccc2oc3c(N4CCN(C)CC4)nc(N)nc3c12` [Example 88, 9-Methoxy-4-(4-methyl-piperazin-1-yl)-benzo[4,5]furo[3,2-d]pyrimidin-2-ylamine trifluoroacetic acid salt]: under setting [1], the Ki was 30 nM. The same measure, in the same setting: next, `COc1ccc2oc3c(N4CCN(C)CC4)nc(N)nc3c2c1` [Example 89, 8-Methoxy-4-(4-methyl-piperazin-1-yl)-benzo[4,5]furo[3,2-d]pyrimidin-2-ylamine trifluoroacetic acid salt]: 12 nM. Same read-out and setting: the value for `Nc1nc(N2CCNCC2)c2oc3cccc(C(F)(F)F)c3c2n1` [Example 90, 4-piperazin-1-yl-9-trifluoromethyl-benzo[4,5]furo[3,2-d]pyrimidin-2-ylamine citrate salt] was 120 nM; that for `CN1CCN(c2nc(N)nc3c2oc2cccc(C(F)(F)F)c23)CC1` [Example 91, 4-(4-Methyl-piperazin-1-yl)-9-trifluoromethyl-benzo[4,5]furo[3,2-d]pyrimidin-2-ylamine citrate salt] was 50 nM.

As for `Nc1nc(N2CCC[C@H](N)C2)c2oc3cccc(C(F)(F)F)c3c2n1` [Example 92, (S)-4-(3-Amino-piperidin-1-yl)-9-trifluoromethyl-benzo[4,5]furo[3,2-d]pyrimidin-2-ylamine citrate salt], the inhibitory constant (Ki) under setting [1] is > 10000 nM.

Turning to `Nc1nc(N2CCC[C@H](N)C2)c2oc3ccc(Cl)c(Cl)c3c2n1` [Example 93, (S)-4-(3-Amino-piperidin-1-yl)-8,9-dichloro-benzo[4,5]furo[3,2-d]pyrimidin-2-ylamine trifluoroacetic acid salt], the Ki under setting [1] is > 10000 nM. On the same count and under the same terms, the value for `Nc1nc(N2C[C@@H]3C[C@H]2CN3)c2oc3cccc(C(F)(F)F)c3c2n1` [Example 94, (S,S)-4-(2,5-Diaza-bicyclo[2.2.1]hept-2-yl)-9-trifluoromethyl-benzo[4,5]furo[3,2-d]pyrimidin-2-ylamine citrate salt] was 880 nM; that for `CN(CCN)c1nc(N)nc2c1oc1ccc(Cl)cc12` [Example 96, N^4-(2-Amino-ethyl)-8-chloro-N^4-methyl-benzo[4,5]furo[3,2-d]pyrimidine-2,4-diamine trifluoroacetic acid salt] was 2.8 nM.

As to `Nc1nc(N2CC3CCC(C2)N3)c2oc3ccc(Cl)cc3c2n1` [Example 97, 8-Chloro-4-(3,8-diaza-bicyclo[3.2.1]oct-3-yl)-benzo[4,5]furo[3,2-d]pyrimidin-2-ylamine trifluoroacetic acid salt], the inhibition constant (Ki) was 42 nM. Take `Nc1nc(N2C[C@@H]3C[C@H]2CN3)c2oc3ccc(Cl)c(Cl)c3c2n1` [Example 98, (S,S)-8,9-Dichloro-4-(2,5-diaza-bicyclo[2.2.1]hept-2-yl)-benzo[4,5]furo[3,2-d]pyrimidin-2-ylamine trifluoroacetic acid salt]: the Ki under setting [1] was > 10000 nM. In the case of `CN[C@@H]1CCN(c2nc(N)nc3c2oc2ccc(Cl)c(Cl)c23)C1` [Example 99, (R)-8,9-Dichloro-4-(3-methylamino-pyrrolidin-1-yl)-benzo[4,5]furo[3,2-d]pyrimidin-2-ylamine trifluoroacetic acid salt], the inhibition constant Ki under setting [1] was found to be 10 nM.

With `CN[C@@H]1CCN(c2nc(N)nc3c2oc2cccc(OC)c23)C1` [Example 100, (R)-9-Methoxy-4-(3-methylamino-pyrrolidin-1-yl)-benzo[4,5]furo[3,2-d]pyrimidin-2-ylamine trifluoroacetic acid salt], under setting [1], the Ki amounted to 20 nM. The same measure, in the same setting: the value for `CN1CCN(c2nc(N)nc3c2oc2ccc(Cl)c(Cl)c23)CC1` [Example 101, 8,9-Dichloro-4-(4-methyl-piperazin-1-yl)-benzo[4,5]furo[3,2-d]pyrimidin-2-ylamine trifluoroacetic acid salt] was 7.8 nM; that for `CN[C@@H]1CCN(c2nc(N)nc3c2oc2ccc(OC)cc23)C1` [Example 102, (R)-8-Methoxy-4-(3-methylamino-pyrrolidin-1-yl)-benzo[4,5]furo[3,2-d]pyrimidin-2-ylamine trifluoroacetic acid salt] was 12 nM. The same measure, in the same setting: next, `NCC1CN(c2nc(N)nc3c2oc2ccc(Cl)cc23)C1` [Example 103, 4-(3-Aminomethyl-azetidin-1-yl)-8-chloro-benzo[4,5]furo[3,2-d]pyrimidin-2-ylamine trifluoroacetic acid salt]: 3.4 nM; `Nc1nc(N2CCNCC2)c2oc3ccc(Cl)c(Cl)c3c2n1` [Example 104, 8,9-Dichloro-4-piperazin-1-yl-benzo[4,5]furo[3,2-d]pyrimidin-2-ylamine trifluoroacetic acid salt]: 61 nM.

With `CN1C[C@@H]2C[C@H]1CN2c1nc(N)nc2c1oc1ccc(Cl)cc12` [Example 106, (S,S)-8-Chloro-4-(5-methyl-2,5-diaza-bicyclo[2.2.1]hept-2-yl)-benzo[4,5]furo[3,2-d]pyrimidin-2-ylamine trifluoroacetic acid salt], the Ki amounted to 11 nM.

Consider `COc1ccc2oc3c(N4CCC[C@H](N)C4)nc(N)nc3c2c1` [Example 107, (S)-4-(3-Amino-piperidin-1-yl)-8-methoxy-benzo[4,5]furo[3,2-d]pyrimidin-2-ylamine trifluoroacetic acid salt], for which the inhibition constant (Ki) under setting [1] worked out at 360 nM.

Regarding `Nc1nc(N2CC[C@@H](N)C2)c2oc3ccccc3c2n1` [Example 108, (R)-4-(3-Amino-pyrrolidin-1-yl)-benzo[4,5]furo[3,2-d]pyrimidin-2-ylamine], under setting [1], the Ki was 2.6 nM. The same measure, in the same setting: next, `CN[C@@H]1CCN(c2nc(N)nc3c2oc2ncc(Cl)cc23)C1` [Example 109, (R)-3-Chloro-8-(3-methylamino-pyrrolidin-1-yl)-9-oxa-1,5,7-triaza-fluoren-6-ylamine]: 260 nM. Still for that read-out and setting: the value for `Nc1nc(NCC2CNC2)c2oc3ccc(Cl)cc3c2n1` [Example 110, N^4-Azetidin-3-ylmethyl-8-chloro-benzo[4,5]furo[3,2-d]pyrimidine-2,4-diamine trifluoroacetic acid salt] was 1820 nM; that for `Nc1nc(NC2CNC2)c2oc3ccc(Cl)cc3c2n1` [Example 111, N^4-Azetidin-3-yl-8-chloro-benzo[4,5]furo[3,2-d]pyrimidine-2,4-diamine trifluoroacetic acid salt] was 330 nM. On the same count and under the same terms, the value for `NCCNc1nc(N)nc2c1oc1ccc(Cl)cc12` [Example 112, N^4-(2-Amino-ethyl)-8-chloro-benzo[4,5]furo[3,2-d]pyrimidine-2,4-diamine trifluoroacetic acid salt] was 41 nM; that for `COc1ccc2oc3c(N4C[C@@H]5C[C@H]4CN5)nc(N)nc3c2c1` [Example 113, (S,S)-4-(2,5-Diaza-bicyclo[2.2.1]hept-2-yl)-8-methoxy-benzo[4,5]furo[3,2-2]pyrimidin-2-ylamine trifluoroacetic acid salt] was 420 nM; that for `CN1CCN(c2nc(NCCO)nc3c2oc2ccc(Cl)cc23)CC1` [Example 115, 2-[8-Chloro-4-(4-methyl-piperazin-1-yl)-benzo[4,5]furo[3,2-d]pyrimidin-2-ylamino]-ethanol] was 4.3 nM. As for `CN1CCN(c2nc(NCCO)nc3c2oc2ccccc23)CC1` [Example 116, 2-[4-(4-Methyl-piperazin-1-yl)-benzo[4,5]furo[3,2-d]pyrimidin-2-ylamino]-ethanol], the Ki under setting [1] turned out to be 68 nM.

One may read the Ki as a measure of affinity in units of concentration, obtained from inhibition or displacement.
